According to paper PMC8044163, “Vitamin D and lumisterol derivatives can act on liver X receptors (LXRs)” (Scientific Reports, 2021):

Legend:
LBD of LXRβ = biological target: T1, LBD of LXRβ (Homo sapiens, UniProt P55055); assay: LanthaScreen TR-FRET LXRβ coactivator assay (LXR binding assay); assay type: biochemical; conditions: agonist; average values; read-out: LXRβ EC50
T1 construct: purchased Thermo Fisher Scientific
T1 sequence (P55055 222-460 limits assumed): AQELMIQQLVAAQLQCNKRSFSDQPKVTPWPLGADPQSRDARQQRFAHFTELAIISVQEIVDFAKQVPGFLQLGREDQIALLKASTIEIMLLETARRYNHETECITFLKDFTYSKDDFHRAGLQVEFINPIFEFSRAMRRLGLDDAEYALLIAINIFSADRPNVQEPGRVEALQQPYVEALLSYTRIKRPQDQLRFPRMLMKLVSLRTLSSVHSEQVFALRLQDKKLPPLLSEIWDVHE
Procedure: (§1) Binding assays of graded concentrations of vitamin D3 or lumisterol hydroxyderivatives to LXRα/β were performed using the LanthaScreen TR-FRET LXRα/β Coactivator kit (Thermo Fisher Scientific, Inc., Waltham, MA) following the manufacture’s protocol. Briefly, after addition of LXRα/β-LBD to the derivatives, a mixture of peptide (Fluorescein-TRAP220/DRIP-2 for LXRα or Fluorescein-D22 for LXRβ) and antibody (Tb-anti-GST) was added to the reaction followed by incubation in room temperature for 2 h. TR-FRET ratio was calculated by dividing the emission at 520 nm by the emission at 495 nm using Synergy neo2 (BioTek, Winooski, VT).

LBD of LXRα = biological target: T2, LBD of LXRα (Homo sapiens, UniProt Q13133); assay: LanthaScreen TR-FRET LXRα coactivator assay (LXR binding assay); assay type: biochemical; conditions: agonist; average values; read-out: LXRα EC50
T2 construct: after addition of LXRα/β-LBD to the derivatives; purchased Thermo Fisher Scientific
T2 sequence (Q13133 209-447 limits assumed): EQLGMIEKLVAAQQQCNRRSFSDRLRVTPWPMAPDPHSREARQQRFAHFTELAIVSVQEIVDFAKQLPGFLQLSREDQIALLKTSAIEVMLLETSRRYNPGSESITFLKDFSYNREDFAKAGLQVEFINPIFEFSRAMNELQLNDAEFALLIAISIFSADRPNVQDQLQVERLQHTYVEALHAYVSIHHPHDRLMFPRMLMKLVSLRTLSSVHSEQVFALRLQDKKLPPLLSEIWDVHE
Procedure: as §1

[1] = system: LXR-response element (LXRE)-driven reporter in CHO cells; assay: LXRE-driven luciferase reporter assay in CHO cells; assay type: cell-based; conditions: 10^–7 M, CHO cells
Procedure: The effects of vitamin D3 and L3 hydroxyderivatives were tested on the LXRE transcriptional activity using pGreenFire1-LXRE-in-ApoE Lentivirus (System Biosciences, Palo Alto, CA). This plasmid was transduced in CHO and HaCaT cells following the manufacture’s protocol and the cells used as a stable LXRE expressed tool. Briefly, the virus was transduced into the cells using TransDux MAX Lentivirus Transduction Enhancer (System Biosciences, Palo Alto, CA) and screened to select the transduced cells using puromycin. The transduced cells were treated with the compounds for 24 h in media containing 5% cFBS (charcoal-treated fetal bovine serum) and the luminescence was read by ONE-Glo Luciferase Assay System (Promega, Madison, WI) using Cytation 5 (BioTek, Winooski, VT).

VDR = biological target: T3, VDR (Homo sapiens, UniProt P11473); assay: Translocation of VDR to the nucleus, imaging flow cytometry in HaCaT; assay type: cell-based; conditions: 10^–7 M, 12 h
T3 construct: endogenous in cells; host or cells: HaCaT keratinocytes
T3 sequence (P11473 1-427): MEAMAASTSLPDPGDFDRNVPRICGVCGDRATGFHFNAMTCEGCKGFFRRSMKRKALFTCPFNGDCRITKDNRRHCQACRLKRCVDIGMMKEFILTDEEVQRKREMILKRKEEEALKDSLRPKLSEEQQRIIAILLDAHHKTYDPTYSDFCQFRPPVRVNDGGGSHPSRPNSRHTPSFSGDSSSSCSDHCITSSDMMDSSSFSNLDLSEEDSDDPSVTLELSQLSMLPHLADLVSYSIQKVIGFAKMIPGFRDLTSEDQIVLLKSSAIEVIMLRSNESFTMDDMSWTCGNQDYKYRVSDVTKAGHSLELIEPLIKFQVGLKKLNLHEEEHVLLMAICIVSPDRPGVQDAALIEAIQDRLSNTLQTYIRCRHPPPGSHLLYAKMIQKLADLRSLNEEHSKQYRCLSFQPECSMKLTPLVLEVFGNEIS

ABCA1 = assay: qPCR of ABCA1 in HaCaT keratinocytes; assay type: cell-based, human; conditions: 10^–7 M
Procedure: HaCaT keratinocytes were cultured as described previously. For RNA isolation the cells were maintained in TPP tissue culture petri dishes (Ø60 mm, 22.1 cm^2) in DMEM containing 10% cFBC to reach semi-confluence and then exposed to 10^–7 M compounds or a corresponding concentration of ethanol solvent.
RNA isolated from either fibroblasts, HaCaT cells or brain was submitted for cDNA synthesis (High Capacity cDNA Reverse Transcription Kit with RNase Inhibitor, Applied Biosystems) following the manufacturers’ protocols. RT-PCR was carried out using Cyber green, in triplicates; as previously described. Approximately, 750 ng of cDNA was used for PCR reactions. GAPDH and CIC-B were used as internal controls. Primer sequences are listed in Supplementary Table 27. Data were analyzed using GraphPad Prism statistical software one way ANOVA or t-test, where appropriate; *p < 0.05; **p < 0.01; ***p < 0.001.

LXRα = biological target: T4, LXRα (Homo sapiens, UniProt Q13133); assay: Ligand induced translocation of LXRα to the nucleus, immunofluorescence in HaCaT; assay type: cell-based; conditions: 10^−7 M, 24 h
T4 construct: endogenous in cells; host or cells: HaCaT keratinocytes
T4 sequence (Q13133 1-447): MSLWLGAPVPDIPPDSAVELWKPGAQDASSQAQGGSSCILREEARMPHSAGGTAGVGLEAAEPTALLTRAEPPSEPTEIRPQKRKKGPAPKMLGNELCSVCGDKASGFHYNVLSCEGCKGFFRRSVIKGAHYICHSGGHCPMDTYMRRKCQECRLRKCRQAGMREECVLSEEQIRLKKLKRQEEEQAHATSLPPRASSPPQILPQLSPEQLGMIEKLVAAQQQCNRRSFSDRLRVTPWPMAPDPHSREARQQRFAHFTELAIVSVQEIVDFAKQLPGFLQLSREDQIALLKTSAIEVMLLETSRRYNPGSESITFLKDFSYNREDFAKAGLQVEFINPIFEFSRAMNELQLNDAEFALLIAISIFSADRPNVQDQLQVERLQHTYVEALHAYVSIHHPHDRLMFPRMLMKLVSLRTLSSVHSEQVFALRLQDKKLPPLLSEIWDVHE
Procedure: (§2) HaCaT cells were plated in DMEM plus 5% cFBS either on a sterile glass cover slip placed in a well of a 6-well plates for immunofluorescence (IF) assays or TPP Petri dishes for image-stream flow cytometry, and treated with 10^–7 M D3- or L3-hydroxyderivatives or 0.1% ethanol (vehicle) as a negative control was added to each well, and the cells were incubated for 12 or 24 h at 37 °C with 5% CO2. For IF the cells were fixed in 4% paraformaldehyde for 15 min, incubated in 0.5% Triton X-100 in phosphate-buffered saline (PBS) for 5 min, and washed 3 times in PBS. After blocking with 2% bovine serum albumin (BSA) in PBS for 1 h at room temperature, the cells were treated with an anti-LXRα antibody (Novus Biologicals, LLC, Centennial, CO) at 1:200 in PBS supplemented with 2% BSA overnight in 4 °C. After washing the slides were incubated with a mouse anti-rabbit IgG-FITC (Santa Cruz Biotechnology, Inc, Dallas, TX) at 1:200 dilution for 1.5 h at 37 °C. After washing the slides were mounted using propidium iodide (PI) (Vector Labs, Burlingame, California) as a nuclear counterstain. The slides were examined using a KEYENCE America BZ-X710 Fluorescence Microscope (Itasca, IL). The images were subsequently analyzed using the JACoP plugin for colocalization analysis with ImageJ[74]. Five separate high-power field (40×) images were converted to grayscale and analyzed for each condition. Manders’ coefficient (M1), calculated using a preset threshold, was used to quantify the degree of colocalization between PI and LXRα with 0 representing no colocalization, and 1 representing perfect colocalization.

LXRα/β = assay: Ligand induced translocation of LXRα/β to the nucleus, imaging flow cytometry in HaCaT; assay type: cell-based, human; conditions: 10^–7 M, 12 h
Procedure: as §2
For Image Stream II (Amnis, Seattle, WA, USA) cytometer analyses, HaCaT cells were detached and processed as previously described. The cells were fixed with paraformaldehyde and permeabilized in methanol containing buffer[78],[79] and Hoechst stain (r37165, ThermoFisher) and rabbit antibodies to LXRα/β (sc 377260, AF 647, SantaCruz) or VDR (sc-13133, AF 488, SantaCruz) as described previously. Data were analyzed using IDEAS software (Amnis, Seattle, WA, USA).

| Structure (SMILES) | EC50 (LBD of LXRβ) [µM] | EC50 (LBD of LXRα) [µM] | LXRE luciferase (transcriptional) activity [1] | translocation of VDR from the cytoplasm to the nucleus (VDR) | ABCA1 RNA expression (qPCR) (ABCA1) | translocation of LXRα to the nucleus (immunofluorescence, Manders' coefficient) (LXRα) | translocation of LXRα/β from the cytoplasm to the nucleus (LXRα/β) |
| --- | --- | --- | --- | --- | --- | --- | --- |
| C=C1CCC(O)CC1=CC=C1CCCC2(C)C1CCC2(O)C(C)O (stereo not drawn) [17,20(OH)2pD] | 2.6 | 30 | weakest stimulant | – | – | – | – |
| C=C1CC[C@H](O)C/C1=C/C=C1\CCC[C@]2(C)[C@@H]([C@H](C)CCCC(C)(C)O)CC[C@@H]12 [25(OH)D3, reference compound] | 3.8 | 0.011 | – | increased translocation | stimulation | induced translocation | increased translocation |
